Experimental data from article PMC9888480, “Carboranyl-1,8-naphthalimide intercalators induce lysosomal membrane permeabilization and ferroptosis in cancer cell lines” (Journal of Enzyme Inhibition and Medicinal Chemistry, 2023).

Key:
Assay type in all cases: cell-based, human
HepG2 cells [1] = test: Intracellular Fe2+ level determination (FeRhoNox-1); conditions: HepG2, 24 h, total IC50 concentration
Protocol: The HepG2 cells were seeded at the density of 2 × 10^5 cells/well onto 12-well plates and cultured with supplemented EMEM at 37 °C under 5% CO2 saturation until 70–80% confluency was reached. […] Subsequently, the cells were detached with trypsin (Corning®), washed with 1 ml DPBS (Capricorn), and then resuspended in the growth medium with 5 µM FeRhoNox™-1 (Goryo Chemical) for 1 h. […] The cells were analysed after incubation with the dye with excitation at 488 nm using a FACSCalibur flow cytometer (Becton Dickinson), and the data were analysed using the FlowJo software (Becton Dickinson). To create a strong, single, positive red fluorescence signal, 3 mM N-acetylcysteine (2 h incubation; Sigma-Aldrich) was used.

HepG2 cells [2] = test: Reduced glutathione (GSH) level measurement (Thiolite Green); conditions: HepG2, 24 h, total IC50 concentration
Protocol: The HepG2 cells were seeded at a density of 2 × 10^5 cells/well onto 12-well plates and under the same environmental conditions as the above experiments. The cells were then treated with the tested compounds at the final concentration equal to the total IC50 values for 24 h. The cellular GSH level was measured by staining with the nonfluorescent Thiolite Green dye, which emits strong fluorescence after reaction with thiols ([…]) according to the manufacturer’s protocol (AAT Bioquest, Sunnyvale, CA, USA). After incubation with the compounds (34–5 µM, 35–4.5 µM, 36–4 µM, 37–4.5 µM) the cells were detached with trypsin (Corning®) and washed twice with 1 ml of DPBS (Capricorn). Subsequently, the cells were suspended in a staining solution (50 µM) and incubated at 37 °C in a 5% CO2 environment for 30 min. After staining, the fluorescence intensity was analysed using a FACSCalibur flow cytometer with excitation at 488 nm, and the data were analysed using the FlowJo software (Becton Dickinson).

HepG2 cells [3] = test: Lysosome status (acridine orange and Lysotracker Deep Red staining); conditions: HepG2, 3 h, total IC50 concentration (5, 4.5, 4, 4.5 µM)
Protocol: To analyse the condition of the lysosomes, the cells (2 × 10^5) were stained with the 100 nM LysoTracker™ Deep Red (Thermo Fisher Scientific) fluorescent dye for 30 min under growth conditions. The HepG2 and MRC-5 cells were treated with the tested compounds for 3 h.Final concentration of the compounds for HepG2 cells were as follows: 34–5 µM, 35–4.5 µM, 36–4 µM, 37–4.5 µM, whereas for MRC-5 were: 34–2.1 µM, 35–2 µM, 36–2.3 µM, 37–2.3 µM. Subsequently, the cells were trypsinized, rinsed with 1 ml of DPBS (Capricorn), and then incubated with the dye. Then, cytometric analysis of the stained cells was performed at an excitation/emission wavelength of 647/668 nm.
Lysosomal permeabilization was tested using the acridine orange (AO) dye. After treatment with the compounds, the cell pellets were suspended in 500 µl of DBPS containing AO (Sigma-Aldrich) at the final concentration of 0.5 µg/ml. […] Fluorescence intensity was analysed at an excitation wavelength of 488 nm, and two emission spectra were acquired at 505–550 and 600–650 nm for green and red fluorescence, respectively. The cells were analysed after incubation with the dye, with excitation at 488 nm, using a FACSCalibur flow cytometer (Becton Dickinson), and the data were analysed using the FlowJo software (Becton Dickinson). […]

HepG2 cells [4] = test: Cell cycle analysis by flow cytometry (PI); conditions: HepG2, 24 h, total IC50 concentration; 5% in untreated cells
Protocol: The DNA content was determined using flow cytometry with PI (Sigma-Aldrich, Steinheim, Germany) staining. After incubation, the cells were trypsinized and washed twice with 1 ml of PBS (Capricorn). In the next step, the cells were fixed with an ice-cold 80% ethanol. After incubation for 1 h at 4 °C, the fixed cells were washed twice with PBS and suspended in the staining PI/RNAse A/PBS buffer (PI 50 µg/ml, RNAse A 100 µg/ml) for 30 min at 37 °C in the dark. PI (Sigma) fluorescence was measured using a FACSCalibur (Becton Dickinson), and data were analysed using the FlowJo software (Becton Dickinson).

Substance | intracellular Fe2+ level (red fluorescence intensity) (HepG2 cells [1]) | GSH level, green fluorescence change compared to control (HepG2 cells [2]) | AO green/red ratio (LMP) (HepG2 cells [3]) | accumulation of cells in G2M phase (HepG2 cells [4])
4-[(6-[(1,2-Dicarba-closo-dodecaborane-1-yl)ethylamino]hexyl)amino]-3-nitro-N-[2-(N-pyrrolidinyl)ethyl]-1,8-naphthalimide [Compound 36] | lowest | not statistically significant | – | –
4-[(6-[(1,2-Dicarba-closo-dodecaborane-1-yl)ethylamino]hexyl)amino]-N-[2-(dimethylamino)ethyl]-3-nitro-1,8-naphthalimide [Compound 34] | – | – | approximately twofold | –
4-[(6-[(1,7-Dicarba-closo-dodecaborane-1-yl)ethylamino]hexyl)amino]-3-nitro-N-[2-(N-pyrrolidinyl)ethyl]-1,8-naphthalimide [Compound 37] | – | – | – | 15%
4-[(6-[(1,7-Dicarba-closo-dodecaborane-1-yl)ethylamino]hexyl)amino]-N-[2-(dimethylamino)ethyl]-3-nitro-1,8-naphthalimide [Compound 35] | highest ferrous level | 70% | approximately twofold | 15%
